The values that follow are results of earlier work, collected in patent US7041676B2, “Compounds, compositions, and methods” (Cytokinetics, Inc., priority 2002, dated 2006).

The term GI50 denotes the concentration that inhibits growth by half.

The data set deals with A549 cells. To be noted: data provided by National Cancer Institute, Developmental Therapeutic Program.
`O=c1[nH]cc(F)c(=O)[nH]1` [5-fluorouracil]: the 50% growth inhibitory concentration (GI50) is 1000 nM.
For `COc1cccc2c1C(=O)c1c(O)c3c(c(O)c1C2=O)C[C@@](O)(C(=O)CO)C[C@@H]3O[C@H]1C[C@H](N)[C@H](O)[C@H](C)O1` [doxorubicin], the GI50 was 63 nM.
In the case of `CC(=O)O[C@H]1C(=O)[C@@]2(C)[C@H]([C@H](OC(=O)c3ccccc3)[C@]3(O)C[C@H](OC(=O)[C@H](O)[C@@H](NC(=O)c4ccccc4)c4ccccc4)C(C)=C1C3(C)C)[C@]1(OC(C)=O)CO[C@@H]1C[C@@H]2O` [paclitaxel], the concentration for 50% growth inhibition (GI50) is 4 nM.
`NC(=O)NO` [hydroxyurea]: the GI50 was 500000 nM.
